Like-named read-outs stand apart in the source and are kept apart here.

This test deals with SARS-CoV-2 strain BavPat1. Put plainly: Determination of EC50 and EC90: inhibition of SARS-CoV-2 viral RNA replication in Vero E6 cells (RT-qPCR). Conditions: for EC50: Severe acute respiratory syndrome coronavirus 2, Vero C1008, 48 h, read-out: EC50 (compound concentration required to inhibit viral RNA replication by 50%). The test is classed as cell-based.

For the compound `COc1cccc(-c2ccc(NC(=O)C3=C(C(=O)O)CCC3)c(F)c2)c1` [Vidofludimus, 2-[[2-fluoro-4-(3-methoxyphenyl)phenyl]carbamoyl]cyclopentene-1-carboxylic acid], the EC50 (Vero E6 cells, MOI 0.002, 2 days at 37° C., viral RNA in supernatant, logarithmic interpolation) was 23.1 µM. Further, the “effect on replication of SARS-CoV-2” value (Vero E6 cells, two days of culture) is “can repress the replication of SARS-CoV-2 in a significant manner”.
As to `CCC(CC)COC(=O)[C@H](C)N[P@](=O)(OC[C@H]1O[C@@](C#N)(c2ccc3c(N)ncnn23)[C@H](O)[C@@H]1O)Oc1ccccc1` [remdesivir], the EC50 stood at 6.65 µM.

Source of the values: patent publication US20230146096A1, “USE OF VIDOFLUDIMUS FOR THE TREATMENT OF CORONAVIRUS INFECTIONS” (INSERM (Institut National de la Santé et de la Recherche …, priority 2020, published 2023).
